How the values were obtained:
[1] = test system: caspase-9; test: Caspase-9 expression in leukemic T cells; type: cell-based, human; settings: cisplatin, data not shown
[2] = test system: caspase-9 and caspase-3; test: Caspase-9 and caspase-3 protein expression in P5 cells (immunofluorescence, Western blot); type: cell-based, human; settings: Fig. 4c
Experimental: P5 cells either untreated (CO) or stimulated with cisplatin (CIS, 2 µg/ml) were incubated in the absence or presence of DEX (1 µM). • (a) 6 and 24 h later RNA was extracted and assayed by RT-PCR for expression of caspase-9. Expression of the GAPDH gene served as control for equal conditions. • (b) 24 h after stimulation expression of caspase-9 proteins was examined by immunofluorescence staining using a rabbit polyclonal caspase-9 antibody and a FITC-coupled secondary antibody. Staining with the secondary antibody alone served as control for unspecific binding. • (c) 48 and 72 h after treatment whole cell proteins were extracted and analysed for expression of caspase-9 and caspase-3. The protein sizes in kDa are indicated on the right. […]
• (A) Cell culture. […] The mice were given 0.28 mg/L DEX in drinking water, and the amount of water consumed was monitored. […] The tumour volumes were measured using callipers, and calculated using, as an approximation, the formula for volume of a hemi-ellipsoid: π(width^2 x length)/6. […] Early apoptotic changes were identified by staining of cells with fluoresceinthiocyanate (FITC)-conjugated annexin V and propidium iodide (Becton Dickinson, Heidelberg, Germany) and analysed by flow cytometry (FACScan, Becton Dickinson) as described (Herr et al., EMBO J. 16 (1997), 6200-6208) • (E) Immunohistochemistry. […]

SMILES: N.N.[Cl][Pt][Cl] [cisplatin]
- expression of caspase-9 [1]: neither induced
- protein levels of procaspase-9 ([2]; Western blot at 48 and 72 h): reduced the protein levels of procaspase-9
- procaspase-3 cleavage ([2]; cisplatin alone, 48 and 72 h): cleaved 48 and 72 h following cisplatin
